This note sets out measurements from PubChem BioAssay (NCI).

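96-well plates; 48 h exposure; 5 concentrations. Endpoints by linear interpolation between flanking doses. Not reached: highest tested concentration assigned. TGI marks complete inhibition of growth.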 A value given as a limit tells only on which side of the number the result lay.

Among the test systems are M14 melanoma; HCC-2998 colon; HS 578T breast; A549 NSCLC; SNB-75 CNS; BT-549 breast; KM12 colon; HCT-116 colon; SR leukemia; DU-145 prostate; MALME-3M melanoma; MDA-N; HOP-92 NSCLC; OVCAR-5 ovarian; HL-60(TB) leukemia; MDA-MB-231 breast; SK-MEL-2 melanoma; NCI-H226 lung; COLO 205 colon.
Holding throughout (test): NCI-60 cell line screen, 48 h

For `CC(C)CC(C#CCCOC(=O)c1ccccc1)OC(=O)c1ccccc1` (configuration not stated), the TGI with M14 melanoma, with HCC-2998 colon, with HS 578T breast, with A549 NSCLC, in the test on SNB-75 CNS and with BT-549 breast was over 10 µM each time. For the same compound, the TGI with KM12 colon, in the test with HCT-116 colon, with SR leukemia, with DU-145 prostate, in the test on MALME-3M melanoma and in the test on MDA-N was over 10 µM in each case. Besides, the TGI in the test with HOP-92 NSCLC, in the test with OVCAR-5 ovarian, with HL-60(TB) leukemia, in the test on MDA-MB-231 breast, in the test with SK-MEL-2 melanoma and in the test with NCI-H226 lung was over 10 µM in each case.

For the compound `Cc1ccc2c(ccc3ncc(CNc4ccc(NS(C)(=O)=O)cc4)c32)[nH]1`, the TGI is 33.1 µM in the test with M14 melanoma; 59.9 µM with HS 578T breast; 66 µM in the test on A549 NSCLC; 34 µM in the test on SNB-75 CNS; over 100 µM in the test on BT-549 breast; 36.6 µM in the test with KM12 colon. The TGI with HCT-116 colon is 37.9 µM; with SR leukemia it was 50.8 µM; in the test on DU-145 prostate it was 42.6 µM; in the test with MALME-3M melanoma, 34.5 µM; in the test on MDA-N it was 32.1 µM; in the test with HOP-92 NSCLC, 90.3 µM. In addition, the TGI was 53.8 µM with OVCAR-5 ovarian; 65.3 µM in the test on HL-60(TB) leukemia; 74.5 µM in the test on MDA-MB-231 breast; 94.4 µM in the test with COLO 205 colon; 38.5 µM in the test on SK-MEL-2 melanoma; 55.6 µM with NCI-H226 lung.

As to `COC(=O)c1ccc(NCC2=CC(=O)C=CC2=O)cc1O`, the TGI in the test on M14 melanoma is 50.6 µM; with HS 578T breast, over 100 µM; in the test with A549 NSCLC, over 100 µM; with SNB-75 CNS, 42.9 µM; with BT-549 breast, 25.1 µM; in the test with HCT-116 colon, 33.8 µM. Further, the TGI in the test with SR leukemia is over 100 µM; with DU-145 prostate, 29 µM; in the test with MALME-3M melanoma, 28.6 µM; in the test on MDA-N it was 35.8 µM; in the test on HOP-92 NSCLC it was 9.27 µM; with OVCAR-5 ovarian, 36.9 µM. The TGI was 34.7 µM with MDA-MB-231 breast, 31.4 µM with COLO 205 colon, over 100 µM in the test with SK-MEL-2 melanoma and 44.7 µM with NCI-H226 lung.

Turning to `COc1c(C)c(C/C=C(\C)CC/C=C(\C)CC/C=C(\C)CC/C=C(\C)CCC=C(C)C)c(OC)c(OC)c1OC`, the TGI with M14 melanoma was over 100 µM; in the test on HS 578T breast, over 100 µM; with A549 NSCLC it was 48.1 µM; in the test on SNB-75 CNS, over 100 µM; in the test on BT-549 breast, over 100 µM; with KM12 colon, 29.1 µM. For the same compound, the TGI was over 100 µM in the test on HCT-116 colon; 54.7 µM with SR leukemia; over 100 µM in the test with DU-145 prostate; over 100 µM in the test with MDA-N; 31.8 µM with HOP-92 NSCLC; over 100 µM in the test with OVCAR-5 ovarian. For the same compound, the TGI in the test with MDA-MB-231 breast, in the test on COLO 205 colon and in the test with SK-MEL-2 melanoma was over 100 µM in each case.

In the case of `CCOC(=O)c1ccc(Nc2nc3ccccc3n3cccc23)cc1`, the TGI was over 100 µM in the test on M14 melanoma; over 100 µM in the test with HCC-2998 colon; over 100 µM with HS 578T breast; over 100 µM with A549 NSCLC; 48.3 µM in the test with SNB-75 CNS; over 100 µM in the test with BT-549 breast. Moreover, the TGI with KM12 colon, with HCT-116 colon, in the test on SR leukemia, with DU-145 prostate, with MALME-3M melanoma and in the test with MDA-N was over 100 µM each time. In addition, the TGI was over 100 µM in the test with HOP-92 NSCLC; over 100 µM in the test with OVCAR-5 ovarian; 0.0169 µM in the test on HL-60(TB) leukemia; over 100 µM in the test with MDA-MB-231 breast; over 100 µM in the test with COLO 205 colon; over 100 µM in the test with SK-MEL-2 melanoma.

For the compound `COC(=O)c1ccc(Oc2nc3ccc(C(F)(F)F)cc3nc2-c2ccccc2)cc1`, the TGI in the test on HCC-2998 colon, in the test on HS 578T breast, in the test with A549 NSCLC, in the test with SNB-75 CNS, with BT-549 breast and in the test on KM12 colon was over 100 µM each time. The TGI in the test on HCT-116 colon, in the test with SR leukemia, in the test on DU-145 prostate, with MALME-3M melanoma, in the test with MDA-N and in the test with HOP-92 NSCLC was over 100 µM each time. Besides, the TGI in the test on OVCAR-5 ovarian, in the test on HL-60(TB) leukemia, with MDA-MB-231 breast, in the test on COLO 205 colon and in the test with NCI-H226 lung was over 100 µM each time.

As to `Fc1ccccc1-c1cc(=S)c2cc3c(cc2[nH]1)OCO3`, the TGI was over 100 µM in the test with M14 melanoma; over 45.5 µM with HCC-2998 colon; over 100 µM in the test with HS 578T breast; over 100 µM in the test on A549 NSCLC; over 100 µM with BT-549 breast; over 100 µM with KM12 colon. Also, the TGI in the test with HCT-116 colon is over 100 µM; with SR leukemia, over 100 µM; in the test with DU-145 prostate, over 100 µM; in the test with MALME-3M melanoma, over 100 µM; with MDA-N, over 26.7 µM; with HOP-92 NSCLC it was over 100 µM. Besides, the TGI in the test on OVCAR-5 ovarian was over 100 µM; with MDA-MB-231 breast, over 100 µM; in the test with COLO 205 colon, over 89 µM; in the test on SK-MEL-2 melanoma, over 76.7 µM; in the test with NCI-H226 lung it was over 100 µM.

As to `Cc1cn(CCCCOC(=O)NC(CCCN=C(N)N)C(=O)O)c(=O)[nH]c1=O` (configuration not stated), the TGI with M14 melanoma, with HCC-2998 colon, in the test with HS 578T breast, with A549 NSCLC, with SNB-75 CNS and with BT-549 breast was over 100 µM in each case. Also, the TGI with KM12 colon, with HCT-116 colon, in the test on SR leukemia, with DU-145 prostate, in the test on MDA-N and in the test on HOP-92 NSCLC was over 100 µM each time. The TGI in the test on OVCAR-5 ovarian, with HL-60(TB) leukemia, in the test with MDA-MB-231 breast, in the test on COLO 205 colon, with SK-MEL-2 melanoma and with NCI-H226 lung was over 100 µM in each case.
